From patent publication US11331369B2, “Endoparasitic depsipeptides” (Zoetis Services LLC, priority 2017, dated 2022)
Where a name gives a salt, the structure may show the parent alone.

Test system: third stage larvae of Haemonchus contortus
Experiment: Haemonchus contortus L3 (HcL3) Assay
Format: cell-based
Conditions: 96 h, read-out: HcL3 Minimum Effective Dose (MED)

Question: With `CC(C)C[C@H]1C(=O)O[C@H](Cc2ccc(CN3CCNc4ccccc43)cc2)C(=O)N(C)[C@@H](CC(C)C)C(=O)O[C@H](C)C(=O)N(C)[C@@H](CC(C)C)C(=O)O[C@H](Cc2ccc(CN3CCNc4ccccc43)cc2)C(=O)N(C)[C@@H](CC(C)C)C(=O)O[C@H](C)C(=O)N1C` [Example 9-69, (3S,6R,9S,12R,15S,18R,21S,24R)-6,18-bis[[4-(3,4-dihydro-2H-quinoxalin-1-ylmethyl)phenyl]methyl]-3,9,15,21-tetraisobutyl-4,10,12,16,22,24-hexamethyl-1,7,13,19-tetraoxa-4,10,16,22-tetrazacyclotetracosane-2,5,8,11,14,17,20,23-octaone dihydrochloride] as the compound, how does the minimal effective concentration read?
Answer: Its minimal effective concentration is 10 to 100 µM.

Question: How did the minimal effective concentration turn out when `CC(C)C[C@H]1C(=O)O[C@H](Cc2ccc(Cn3cc(O)cn3)cc2)C(=O)N(C)[C@@H](CC(C)C)C(=O)O[C@H](C)C(=O)N(C)[C@@H](CC(C)C)C(=O)O[C@H](Cc2ccccc2)C(=O)N(C)[C@@H](CC(C)C)C(=O)O[C@H](C)C(=O)N1C` [Example 2-30, (3S,6R,9S,12R,15S,18R,21S,24R)-6-benzyl-18-(4-((4-hydroxy-1H-pyrazol-1-yl)methyl)benzyl)-3,9,15,21-tetraisobutyl-4,10,12,16,22,24-hexamethyl-1,7,13,19-tetraoxa-4,10,16,22-tetraazacyclotetracosan-2,5,8,11,14,17,20,23-octaone] was run?
Answer: Its minimal effective concentration is 1 to 10 µM.

Question: Which minimal effective concentration does the source give for `CC(C)C[C@H]1C(=O)O[C@H](Cc2ccc(C(C)(C)n3cc([N+](=O)[O-])cn3)cc2)C(=O)N(C)[C@@H](CC(C)C)C(=O)O[C@H](C)C(=O)N(C)[C@@H](CC(C)C)C(=O)O[C@H](Cc2ccc(C(C)(C)n3cc([N+](=O)[O-])cn3)cc2)C(=O)N(C)[C@@H](CC(C)C)C(=O)O[C@H](C)C(=O)N1C` [Example 1c-7, (3S,6R,9S,12R,15S,18R,21S,24R)-3,9,15,21-tetraisobutyl-4,6,10,16,18,22-hexamethyl-12,24-bis(4-(2-(4-nitro-1H-pyrazol-1-yl)propan-2-yl)benzyl)-1,7,13,19-tetraoxa-4,10,16,22-tetraazacyclotetracosan-2,5,8,11,14,17,20,23-octaone] here?
Answer: The minimal effective concentration was at most 1 µM.

Question: With `CC(C)C[C@H]1C(=O)O[C@H](Cc2ccc(CN3CCOCC3)cc2)C(=O)N(C)[C@@H](CC(C)C)C(=O)O[C@H](C)C(=O)N(C)[C@@H](CC(C)C)C(=O)O[C@H](Cc2ccccc2)C(=O)N(C)[C@@H](CC(C)C)C(=O)O[C@H](C)C(=O)N1C` [Example 10-6, (3S,6R,9S,12R,15S,18R,21S,24R)-6-benzyl-3,9,15,21-tetraisobutyl-4,10,12,16,22,24-hexamethyl-18-(4-(morpholinomethyl)benzyl)-1,7,13,19-tetraoxa-4,10,16,22-tetraazacyclotetracosan-2,5,8,11,14,17,20,23-octaone] as the compound, how does the minimal effective concentration read?
Answer: Its minimal effective concentration is 1 to 10 µM.

Question: Which minimal effective concentration does the source give for `COc1cnn(Cc2ccc(C[C@H]3OC(=O)[C@H](CC(C)C)N(C)C(=O)[C@@H](C)OC(=O)[C@H](CC(C)C)N(C)C(=O)[C@@H](Cc4cccc(Cn5cc(OC)cn5)c4)OC(=O)[C@H](CC(C)C)N(C)C(=O)[C@@H](C)OC(=O)[C@H](CC(C)C)N(C)C3=O)cc2)c1` [Example 3-27, (3S,6R,9S,12R,15S,18R,21S,24R)-3,9,15,21-tetraisobutyl-6-(3-((4-methoxy-1H-pyrazol-1-yl)methyl)benzyl)-18-(4-((4-methoxy-1H-pyrazol-1-yl)methyl)benzyl)-4,10,12,16,22,24-hexamethyl-1,7,13,19-tetraoxa-4,10,16,22-tetraazacyclotetracosan-2,5,8,11,14,17,20,23-octaone] here?
Answer: Its minimal effective concentration is 1 to 10 µM.

Question: How did the minimal effective concentration turn out when `CC(C)C[C@H]1C(=O)O[C@H](Cc2ccc(Cn3cc(C(N)=O)cn3)cc2)C(=O)N(C)[C@@H](CC(C)C)C(=O)O[C@H](C)C(=O)N(C)[C@@H](CC(C)C)C(=O)O[C@H](Cc2ccccc2)C(=O)N(C)[C@@H](CC(C)C)C(=O)O[C@H](C)C(=O)N1C` [Example 2-53, 1-(4-(((2R,5S,8R,11S,14R,17S,20R,23S)-14-benzyl-5,11,17,23-tetraisobutyl-4,8,10,16,20,22-hexamethyl-3,6,9,12,15,18,21,24-octaoxo-1,7,13,19-tetraoxa-4,10,16,22-tetraazacyclotetracosan-2-yl)methyl)benzyl)-1H-pyrazole-4-carboxamide] was run?
Answer: The minimal effective concentration was 1 to 10 µM.

Question: For `CC(C)C[C@H]1C(=O)O[C@H](Cc2ccc(Cn3cc(O)cn3)cc2)C(=O)N(C)[C@@H](CC(C)C)C(=O)O[C@H](C)C(=O)N(C)[C@@H](CC(C)C)C(=O)O[C@H](Cc2ccc(Cn3cc(O)cn3)cc2)C(=O)N(C)[C@@H](CC(C)C)C(=O)O[C@H](C)C(=O)N1C` [Example 1b-18, (3S,6R,9S,12R,15S,18R,21S,24R)-6,18-bis(4-((4-hydroxy-1H-pyrazol-1-yl)methyl)benzyl)-3,9,15,21-tetraisobutyl-4,10,12,16,22,24-hexamethyl-1,7,13,19-tetraoxa-4,10,16,22-tetraazacyclotetracosan-2,5,8,11,14,17,20,23-octaone], which minimal effective concentration is on record?
Answer: The minimal effective concentration was at most 1 µM.

Question: Which minimal effective concentration does the source give for `CC(C)C[C@H]1C(=O)O[C@H](Cc2ccc(Cn3cc(N4CCOCC4)cn3)cc2)C(=O)N(C)[C@@H](CC(C)C)C(=O)O[C@H](C)C(=O)N(C)[C@@H](CC(C)C)C(=O)O[C@H](Cc2ccc(Cn3cc(N4CCOCC4)cn3)cc2)C(=O)N(C)[C@@H](CC(C)C)C(=O)O[C@H](C)C(=O)N1C` [Example 1b-179, (3S,6R,9S,12R,15S,18R,21S,24R)-3,9,15,21-tetraisobutyl-4,6,10,16,18,22-hexamethyl-12,24-bis(4-((4-morpholino-1H-pyrazol-1-yl)methyl)benzyl)-1,7,13,19-tetraoxa-4,10,16,22-tetraazacyclotetracosan-2,5,8,11,14,17,20,23-octaone] here?
Answer: Its minimal effective concentration is 1 to 10 µM.

Question: How did the minimal effective concentration turn out when `CC(C)C[C@H]1C(=O)O[C@H](Cc2ccc(C(C)(C)n3cc(Br)cn3)cc2)C(=O)N(C)[C@@H](CC(C)C)C(=O)O[C@H](C)C(=O)N(C)[C@@H](CC(C)C)C(=O)O[C@H](Cc2ccc(C(C)(C)n3cc(Br)cn3)cc2)C(=O)N(C)[C@@H](CC(C)C)C(=O)O[C@H](C)C(=O)N1C` [Example 1c-11, (3S,6R,9S,12R,15S,18R,21S,24R)-6,18-bis(4-(2-(4-bromo-1H-pyrazol-1-yl)propan-2-yl)benzyl)-3,9,15,21-tetraisobutyl-4,10,12,16,22,24-hexamethyl-1,7,13,19-tetraoxa-4,10,16,22-tetraazacyclotetracosan-2,5,8,11,14,17,20,23-octaone] was run?
Answer: Its minimal effective concentration is at most 1 µM.

Question: With `CC(C)C[C@H]1C(=O)O[C@H](Cc2ccc(Cn3nccc3C(F)F)cc2)C(=O)N(C)[C@@H](CC(C)C)C(=O)O[C@H](C)C(=O)N(C)[C@@H](CC(C)C)C(=O)O[C@H](Cc2ccc(Cn3nccc3C(F)F)cc2)C(=O)N(C)[C@@H](CC(C)C)C(=O)O[C@H](C)C(=O)N1C` [Example 1b-211, (3S,6R,9S,12R,15S,18R,21S,24R)-6,18-bis(4-((5-(difluoromethyl)-1H-pyrazol-1-yl)methyl)benzyl)-3,9,15,21-tetraisobutyl-4,10,12,16,22,24-hexamethyl-1,7,13,19-tetraoxa-4,10,16,22-tetraazacyclotetracosan-2,5,8,11,14,17,20,23-octaone] as the compound, how does the minimal effective concentration read?
Answer: The minimal effective concentration was at most 1 µM.

Question: With `Cc1cnn(C(C)(C)c2ccc(C[C@H]3OC(=O)[C@H](CC(C)C)N(C)C(=O)[C@@H](C)OC(=O)[C@H](CC(C)C)N(C)C(=O)[C@@H](Cc4ccc(C(C)(C)n5cc(C)cn5)cc4)OC(=O)[C@H](CC(C)C)N(C)C(=O)[C@@H](C)OC(=O)[C@H](CC(C)C)N(C)C3=O)cc2)c1` [Example 1c-9, (3S,6R,9S,12R,15S,18R,21S,24R)-3,9,15,21-tetraisobutyl-4,6,10,16,18,22-hexamethyl-12,24-bis(4-(2-(4-methyl-1H-pyrazol-1-yl)propan-2-yl)benzyl)-1,7,13,19-tetraoxa-4,10,16,22-tetraazacyclotetracosan-2,5,8,11,14,17,20,23-octaone] as the compound, how does the minimal effective concentration read?
Answer: Its minimal effective concentration is at most 1 µM.

Question: How did the minimal effective concentration turn out when `Cc1cnn(Cc2ccc(C[C@H]3OC(=O)[C@H](CC(C)C)N(C)C(=O)[C@@H](C)OC(=O)[C@H](CC(C)C)N(C)C(=O)[C@@H](Cc4cccc(Cn5cc(C)cn5)c4)OC(=O)[C@H](CC(C)C)N(C)C(=O)[C@@H](C)OC(=O)[C@H](CC(C)C)N(C)C3=O)cc2)c1` [Example 3-2, (3S,6R,9S,12R,15S,18R,21S,24R)-3,9,15,21-tetraisobutyl-4,6,10,16,18,22-hexamethyl-12-[[3-[(4-methylpyrazol-1-yl)methyl]phenyl]methyl]-24-[[4-[(4-methylpyrazol-1-yl)methyl]phenyl]methyl]-1,7,13,19-tetraoxa-4,10,16,22-tetrazacyclotetracosane-2,5,8,11,14,17,20,23-octaone] was run?
Answer: The minimal effective concentration was 1 to 10 µM.

Question: How did the minimal effective concentration turn out when `CC(C)C[C@H]1C(=O)O[C@H](Cc2cccc(Cn3cccn3)c2)C(=O)N(C)[C@@H](CC(C)C)C(=O)O[C@H](C)C(=O)N(C)[C@@H](CC(C)C)C(=O)O[C@H](Cc2ccc(Cn3cccn3)cc2)C(=O)N(C)[C@@H](CC(C)C)C(=O)O[C@H](C)C(=O)N1C` [Example 3-1, (3S,6R,9S,12R,15S,18R,21S,24R)-3,9,15,21-tetraisobutyl-4,6,10,16,18,22-hexamethyl-12-[[3-(pyrazol-1-ylmethyl)phenyl]methyl]-24-[[4-(pyrazol-1-ylmethyl)phenyl]methyl]-1,7,13,19-tetraoxa-4,10,16, 22-tetrazacyclotetracosane-2,5,8,11,14,17,20,23-octaone] was run?
Answer: The minimal effective concentration was 1 to 10 µM.

Question: For `CC(C)C[C@H]1C(=O)O[C@H](Cc2cccc(Cn3cc(Br)cn3)c2)C(=O)N(C)[C@@H](CC(C)C)C(=O)O[C@H](C)C(=O)N(C)[C@@H](CC(C)C)C(=O)O[C@H](Cc2ccc(Cn3cc(Br)cn3)cc2)C(=O)N(C)[C@@H](CC(C)C)C(=O)O[C@H](C)C(=O)N1C` [Example 3-3, (3S,6R,9S,12R,15S,18R,21S,24R)-6-[[3-[(4-bromopyrazol-1-yl)methyl]phenyl]methyl]-18-[[4-[(4-bromopyrazol-1-yl)methyl]phenyl]methyl]-3,9,15,21-tetraisobutyl-4,10,12,16,22,24-hexamethyl-1,7,13,19-tetraoxa-4,10,16,22-tetrazacyclotetracosane-2,5,8,11,14,17,20,23-octaone], which minimal effective concentration is on record?
Answer: Its minimal effective concentration is 1 to 10 µM.
